We go through 25 molecules from PubChem BioAssay AID256 (DTP/NCI, 2004).

This assay deals with CD2F1 mice, L1210 leukemia ip, survival T/C. Put plainly: NCI In Vivo Anticancer Drug Screen. Data for tumor model L1210 Leukemia (intraperitoneal) in CD2F1 (CDF1) mice. Conditions: higher = longer survival. A digest of the protocol: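 Activity against a transplanted murine tumor was judged by comparing the compound group with a vehicle group. The outcome in the treated animals was divided by that in the controls.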

[1] abbreviates: endpoint: mean survival time, dose: 100.0 mg/kg/injection, schedule: Q01DX009 (ip), vehicle: saline with Tween-80.
Setting [2] is: endpoint: mean survival time, dose: 100.0 mg/kg/injection, schedule: Q04DX003 (ip), vehicle: saline with Tween-80.
Where [3] appears, read: endpoint: mean survival time, dose: 200.0 mg/kg/injection, schedule: Q01DX009 (ip), vehicle: saline with Tween-80.
Where [4] appears, read: endpoint: mean survival time, dose: 200.0 mg/kg/injection, schedule: Q04DX003 (ip), vehicle: saline with Tween-80.
The mark [5] stands for this setting: endpoint: mean survival time, dose: 400.0 mg/kg/injection, schedule: Q01DX009 (ip), vehicle: saline with Tween-80.
The mark [6] stands for this setting: endpoint: mean survival time, dose: 400.0 mg/kg/injection, schedule: Q04DX003 (ip), vehicle: saline with Tween-80.
Where [7] appears, read: endpoint: mean survival time, dose: 25.0 mg/kg/injection, schedule: Q01DX009 (ip), vehicle: saline.
Setting [8] is: endpoint: mean survival time, dose: 50.0 mg/kg/injection, schedule: Q01DX009 (ip), vehicle: saline.
Setting [9] is: endpoint: mean survival time, dose: 50.0 mg/kg/injection, schedule: Q04DX003 (ip), vehicle: saline with Tween-80.
Where [10] appears, read: endpoint: mean survival time, dose: 25.0 mg/kg/injection, schedule: Q04DX002 (ip), vehicle: saline with Tween-80.
Setting [11] is: endpoint: mean survival time, dose: 50.0 mg/kg/injection, schedule: Q04DX002 (ip), vehicle: saline with Tween-80.
[12] abbreviates: endpoint: mean survival time, dose: 100.0 mg/kg/injection, schedule: Q04DX002 (ip), vehicle: saline with Tween-80.
[13] abbreviates: endpoint: mean survival time, dose: 100.0 mg/kg/injection, schedule: Q01DX001 (ip), vehicle: saline.
Setting [14] is: endpoint: mean survival time, dose: 200.0 mg/kg/injection, schedule: Q01DX001 (ip), vehicle: saline.
The mark [15] stands for this setting: endpoint: mean survival time, dose: 400.0 mg/kg/injection, schedule: Q01DX001 (ip), vehicle: saline.

Values joined by “and” are separate entries in the source; they are usually repeats but may differ in a detail not shown here. Equal values may be shown once. Toxic doses and inconclusive results are not listed.

On to `COc1ccc(OC)c(C=NCCN=Cc2cc(OC)ccc2OC)c1`, for which the T/C is, setting by setting: under setting [1], 87 % of control; under setting [2], 90 % of control; under setting [3], 95 % of control; under setting [4], 88 % of control; under setting [5], 87 % of control; under setting [6], 87 % of control.
For the molecule `O=C1CCCCc2c1ccc(O)c2[N+](=O)[O-]`, the T/C was 113 % of control (endpoint: mean survival time, dose: 12.5 mg/kg/injection, schedule: Q01DX009 (ip), vehicle: saline); 106 % of control under setting [7]; 97 % of control under setting [8].
Turning to `O=C(CCl)OCC(Cl)Cl`, the T/C under setting [1] was 104 % of control and the T/C under setting [3] is 112 % of control.
Consider `COc1cccc(Sc2ccc([N+](=O)[O-])c3no[n+]([O-])c23)c1`, for which the T/C runs as follows: (endpoint: median survival time, dose: 1.85 mg/kg/injection, schedule: Q01DX005 (ip), vehicle: saline with Tween-80) 102 % of control; (endpoint: median survival time, dose: 1.87 mg/kg/injection, schedule: Q01DX005 (ip), vehicle: saline with Tween-80) 106 % of control; (endpoint: median survival time, dose: 3.75 mg/kg/injection, schedule: Q01DX005 (ip), vehicle: saline with Tween-80) 108 % of control and 109 % of control; (endpoint: median survival time, dose: 7.5 mg/kg/injection, schedule: Q01DX005 (ip), vehicle: saline with Tween-80) 107 % of control and 111 % of control; (endpoint: median survival time, dose: 15.0 mg/kg/injection, schedule: Q01DX005 (ip), vehicle: saline with Tween-80) 108 % of control; (endpoint: median survival time, dose: 15.0 mg/kg/injection, schedule: Q01DX009 (ip), vehicle: saline with Tween-80) 102 % of control and 104 % of control. The T/C (endpoint: median survival time, dose: 30.0 mg/kg/injection, schedule: Q01DX005 (ip), vehicle: saline with Tween-80) is 102 % of control and 109 % of control; the T/C (endpoint: median survival time, dose: 30.0 mg/kg/injection, schedule: Q01DX009 (ip), vehicle: saline with Tween-80) was 101 % of control and 103 % of control; the T/C (endpoint: median survival time, dose: 60.0 mg/kg/injection, schedule: Q01DX009 (ip), vehicle: saline with Tween-80) is 96 % of control and 108 % of control; the T/C (endpoint: median survival time, dose: 120.0 mg/kg/injection, schedule: Q01DX009 (ip), vehicle: saline with Tween-80) was 100 % of control.
For the molecule `CCOC(=O)CCC(NC(=O)c1ccc(N(C=O)CCOC=O)cc1)C(=O)OCC` (stereo not drawn), the T/C is, setting by setting: under setting [2], 97 % of control; under setting [4], 96 % of control; under setting [6], 96 % of control.
As to `CCNC(=S)N(Cc1ccccc1)Cc1ccccc1`, the T/C runs as follows: under setting [9], 103 % of control; under setting [2], 89 % of control and 98 % of control; under setting [4], 100 % of control; under setting [6], 87 % of control.
As for `CC(=O)Nc1ccc(S(=O)(=O)N=C(N)N)cc1`, the T/C reads like this: (endpoint: mean survival time, dose: 75.0 mg/kg/injection, schedule: Q04DX002 (ip), vehicle: saline) 114 % of control; (endpoint: mean survival time, dose: 150.0 mg/kg/injection, schedule: Q04DX002 (ip), vehicle: saline) 100 % of control; (endpoint: mean survival time, dose: 300.0 mg/kg/injection, schedule: Q04DX002 (ip), vehicle: saline) 91 % of control.
`CC(C)(CO)NC(=O)CC1CCCCC1`: the T/C runs as follows: (endpoint: mean survival time, dose: 100.0 mg/kg/injection, schedule: Q01DX001 (ip), vehicle: saline with Tween-80) 103 % of control; (endpoint: mean survival time, dose: 200.0 mg/kg/injection, schedule: Q01DX001 (ip), vehicle: saline with Tween-80) 103 % of control; (endpoint: mean survival time, dose: 400.0 mg/kg/injection, schedule: Q01DX001 (ip), vehicle: saline with Tween-80) 100 % of control.
As for `CC(C)(CNC1CCCCC1)OC(=O)c1ccc([N+](=O)[O-])cc1`, the T/C is, setting by setting: (endpoint: mean survival time, dose: 75.0 mg/kg/injection, schedule: Q01DX001 (ip), vehicle: saline) 94 % of control; (endpoint: mean survival time, dose: 150.0 mg/kg/injection, schedule: Q01DX001 (ip), vehicle: saline) 99 % of control; (endpoint: mean survival time, dose: 300.0 mg/kg/injection, schedule: Q01DX001 (ip), vehicle: saline) 94 % of control.
In the case of `CCCCOP(=O)(N=C=S)OCCCC`, the T/C reads like this: under setting [10], 94 % of control; under setting [11], 102 % of control; under setting [12], 90 % of control and 96 % of control.
As to `O=C(O)C(=O)O.O=N[O-].O=N[O-].[Co+2].[NH2-].[NH2-]`, the T/C by setting is: under setting [10], 93 % of control; under setting [11], 117 % of control; under setting [12], 98 % of control.
In the case of `O=[N+]([O-])c1ccccc1O`, the T/C (endpoint: mean survival time, dose: 100.0 mg/kg/injection, schedule: Q04DX003 (ip), vehicle: Klucel (hydroxypropylcellulose) (HPC)) was 97 % of control; the T/C (endpoint: mean survival time, dose: 200.0 mg/kg/injection, schedule: Q04DX003 (ip), vehicle: Klucel (hydroxypropylcellulose) (HPC)) is 97 % of control; the T/C (endpoint: mean survival time, dose: 400.0 mg/kg/injection, schedule: Q04DX003 (ip), vehicle: Klucel (hydroxypropylcellulose) (HPC)) was 96 % of control.
On to `Cc1ccc(C2(SCC(N)C(=O)O)c3ccccc3-c3ccccc32)cc1` (stereo not drawn), for which the T/C is 95 % of control under setting [7]; 95 % of control under setting [8]; 97 % of control (endpoint: mean survival time, dose: 100.0 mg/kg/injection, schedule: Q01DX009 (ip), vehicle: saline); 107 % of control (endpoint: mean survival time, dose: 200.0 mg/kg/injection, schedule: Q01DX009 (ip), vehicle: saline).
As for `O=C(OC1(c2ccccc2)C2C=CC1CC2)c1ccc([N+](=O)[O-])cc1` (stereo not drawn), the T/C reads like this: under setting [11], 102 % of control; under setting [12], 98 % of control; (endpoint: mean survival time, dose: 200.0 mg/kg/injection, schedule: Q04DX002 (ip), vehicle: saline with Tween-80) 95 % of control.
On to `O=S(=O)(SC1=NCCN1)c1ccccc1`, for which the T/C by setting is: under setting [13], 101 % of control; under setting [14], 97 % of control; under setting [15], 101 % of control.
With `COc1ccc(CC(O)CO)cc1OCc1ccccc1` (stereo not drawn), the T/C runs as follows: under setting [1], 95 % of control; under setting [3], 96 % of control; under setting [5], 98 % of control.
In the case of `Cc1cc(O)c2c(c1O)C(=O)c1c(O)ccc(O)c1C2=O`, the T/C is, setting by setting: under setting [13], 95 % of control; under setting [14], 95 % of control; under setting [15], 97 % of control.
As to `CCOc1ccccc1NC(=O)c1ccc(Cl)cc1`, the T/C under setting [2] was 97 % of control, the T/C under setting [4] is 100 % of control and the T/C under setting [6] was 103 % of control.
Take `CCN(CC)Cc1ccccc1COC(=O)c1ccccc1`: the T/C is 98 % of control (endpoint: mean survival time, dose: 100.0 mg/kg/injection, schedule: Q04DX002 (ip), vehicle: saline) and 111 % of control (endpoint: mean survival time, dose: 200.0 mg/kg/injection, schedule: Q04DX002 (ip), vehicle: saline).
With `Oc1ccc(-c2ccc(O)cc2)cc1`, the T/C under setting [9] is 100 % of control; the T/C under setting [2] was 101 % of control and 107 % of control; the T/C under setting [4] is 109 % of control; the T/C under setting [6] is 121 % of control.
For the molecule `C/C(CC(=O)Nc1ccccn1)=N\c1ccccn1`, the T/C under setting [2] was 96 % of control and the T/C under setting [4] was 94 % of control.
For `c1ccc(OCC2CO2)c(OCC2CO2)c1` (stereo not drawn), the T/C by setting is: (endpoint: median survival time, dose: 25.0 mg/kg/injection, schedule: Q01DX009 (ip), vehicle: saline with Tween-80) 110 % of control and 111 % of control; (endpoint: median survival time, dose: 50.0 mg/kg/injection, schedule: Q01DX009 (ip), vehicle: saline with Tween-80) 113 % of control and 117 % of control; (endpoint: median survival time, dose: 200.0 mg/kg/injection, schedule: Q01DX009 (ip), vehicle: saline with Tween-80) 153 % of control and 168 % of control; (endpoint: median survival time, dose: 400.0 mg/kg/injection, schedule: Q01DX009 (ip), vehicle: saline with Tween-80) 104 % of control.
Consider `O=CCC1CCCCC1`, for which the T/C reads like this: (endpoint: mean survival time, dose: 50.0 mg/kg/injection, schedule: Q01DX009 (ip), vehicle: saline with Tween-80) 105 % of control; under setting [1], 94 % of control; under setting [3], 102 % of control.
With `O=C(NNC(=O)c1cccc(C(=O)NNC(=O)c2ccc(Cl)c(Cl)c2)n1)c1ccc(Cl)c(Cl)c1`, the T/C was 110 % of control (endpoint: median survival time, dose: 43.2 mg/kg/injection, schedule: Q01DX005 (ip), vehicle: Klucel (hydroxypropylcellulose) (HPC)); 115 % of control (endpoint: median survival time, dose: 72.0 mg/kg/injection, schedule: Q01DX005 (ip), vehicle: Klucel (hydroxypropylcellulose) (HPC)); 115 % of control and 116 % of control (endpoint: median survival time, dose: 120.0 mg/kg/injection, schedule: Q01DX005 (ip), vehicle: Klucel (hydroxypropylcellulose) (HPC)); 120 % of control and 86 % of control (endpoint: median survival time, dose: 200.0 mg/kg/injection, schedule: Q01DX005 (ip), vehicle: Klucel (hydroxypropylcellulose) (HPC)); 92 % of control (endpoint: median survival time, dose: 333.33 mg/kg/injection, schedule: Q01DX005 (ip), vehicle: Klucel (hydroxypropylcellulose) (HPC)).
Consider `O=C(c1ccccc1)c1c(-c2ccccc2)c(-c2ccccc2)c(-c2ccccc2)c(-c2ccccc2)c1-c1ccccc1`, for which the T/C under setting [2] is 89 % of control, the T/C under setting [4] is 90 % of control and the T/C under setting [6] was 90 % of control.
